Results from publication PMC3862803, “Human Breast Tumor Cells Are More Resistant to Cardiac Glycoside Toxicity Than Non-Tumorigenic Breast Cells” (PLoS ONE, 2013).
Read-outs that look alike come from different tables or passages of the source.

Key:
MDA-MB-231 cells [1] = experiment: TUNEL apoptosis assay; type: cell-based, human; details: 6 hours
Method: (§1) As a positive control, MCF10A and MCF10CA1 cells were treated with DNaseI for 15 minutes prior to assay. Cells were fixed and permeabilized prior to Terminal deoxynucleotidyl transferase dUTP nick end labeling (TUNEL) staining of DNA fragmentation using the ApopTag Fluorescein In Situ Apoptosis Detection Kit according to manufacturer’s instructions (Millipore, Billerica, MA). Slides were covered with Vectashield Mounting Medium with DAPI (Vector Laboratories, Burlingame, CA) and sealed with a glass coverslip. Images were detected and analyzed using Zeiss LSM 5 Pascal microscope and software.

MCF10A cells [2] = experiment: TUNEL apoptosis assay; type: cell-based, human; details: 6 hours
Method: as §1

MCF10CA1 cells [3] = experiment: TUNEL apoptosis assay; type: cell-based, human; details: 6 hours
Method: as §1

MCF7 cells [4] = experiment: TUNEL apoptosis assay; type: cell-based, human; details: 6 hours
MCF10A cells [5] = experiment: PrestoBlue viability assay; type: cell-based, human; details: for IC50: Homo sapiens, MCF-10A, 24 hours, mean ± SE, n>3, read-out: Reduced cell viability (IC50)
Method: (§2) To determine cell growth curves, cells were trypsinized, counted using a Scepter Cell Counter (Millipore, Billerica, MA), plated in a 96-well plate at a density of 1,000, 3,000, 5,000, or 10,000 cells per well, and allowed to attach overnight. On day 2, growth curves were determined using the PrestoBlue Viability Assay (Life Technologies, Grand Island, NY) to ensure cell densities used for viability and proliferation assays were in linear growth phase.

184A1 cells = experiment: PrestoBlue viability assay; type: cell-based; details: Homo sapiens; 184A1, 24 hours; mean ± SE, n>3; read-out: Reduced cell viability (IC50)
Method: as §2

MCF10CA1 cells [6] = experiment: PrestoBlue viability assay; type: cell-based; details: Homo sapiens; MCF10CA1, 24 hours; mean ± SE, n>3; read-out: Reduced cell viability (IC50)
Method: as §2

184D cells = experiment: PrestoBlue viability assay; type: cell-based; details: Homo sapiens, 24 hours, mean ± SE, n>3, read-out: Reduced cell viability (IC50)
Method: as §2

MDA-MB-231 cells [7] = experiment: PrestoBlue viability assay; type: cell-based, human; details: for IC50: Homo sapiens, MDA-MB-231, 24 h, read-out: Reduced cell viability (IC50)
Na,K-ATPase = target: T1, Na,K-ATPase (Homo sapiens, UniProt P05023); experiment: biochemical; type: biochemical; details: for IC50: mean ± SE, n>3, read-out: IC50 for CTS inhibition of ATPase activity
T1 construct: The Na,K-ATPase activity in total membranes isolated from non-tumorous 184D, 184A, and MCF10A (10A) cells; endogenous in cells; host or cells: total membranes of MCF10A, 184D, 184A1, MCF10CA1, MCF7 and MDA-MB-231 human breast cells
Method: Total membranes (TM) were prepared from cells as previously described [37] and resuspended in cold homogenizing buffer (10 mM Tris-HCl, 2 mM EDTA, 250 mM sucrose, pH 7.4) containing Complete-Mini Protease Inhibitor Cocktail Tablets (Roche, Indianapolis, IN).
The ATPase activity assay of isolated TM from cells was performed for 30 min at 37°C as previously described [38].

MDA-MB-231 cells [8] = experiment: BrdU cell proliferation assay; type: cell-based, human
MCF10CA1 cells [9] = experiment: BrdU cell proliferation assay; type: cell-based, human
p-ERK1/2 = experiment: Western blot of cell lysates for p-ERK1/2; type: cell-based, human; details: for p-ERK levels in lysates (western blot): 50 nM or 500 nM ouabain for 24 hours; for p-ERK1/2 levels in lysates (western blot): 500 nM ouabain
Method: Total cell lysate preparations were made by incubating cell pellets in lysis buffer (150 mM NaCl, 50 mM Tris, 1% CHAPS, pH 7.4) for 30 minutes at 4°C. Lysates were cleared at 15,000 x g for 10 minutes and the soluble protein supernatant was collected for analysis. Protein concentrations were determined using the Coomassie Protein Assay Kit (Pierce, Rockford, IL).
Protein samples were subject to western blot analysis according to previously described procedures [39]. Transferred proteins were blocked using either 5% dried milk, 0.1% Tween-20 in phosphate-buffered saline or 5% bovine serum albumin, 0.1% Tween-20 in Tris-buffered saline. PVDF membranes were sequentially probed with primary antibodies and horseradish peroxidase-conjugated secondary antibodies according to manufacturer’s recommendations. Luminata Forte Western HRP Substrate (Millipore, Billerica, MA) was used for peroxidase detection and the resulting signal intensity was quantified on a BioRad Chemidoc XRS using Quantity One Version 4.6.2 software. When appropriate, signal intensity from anti-actin antibody was used as a protein loading control.

MCF10A cells [10] = experiment: BrdU cell proliferation assay; type: cell-based, human; details: 500 nM ouabain for 2 hours, P<0.001
MCF7 cells [11] = experiment: BrdU cell proliferation assay; type: cell-based, human; details: 500 nM ouabain for 24 hours
Method: BrdU label was added to cells in fresh culture medium with or without ouabain for two hours according to manufacturer’s recommendations. BrdU incorporation into the DNA of proliferating cells was detected using an anti-BrdU primary antibody and Peroxidase Goat Anti-mouse secondary antibody. Fluorescence was quantified using a FLUOStar Omega microplate reader (BMG Labtech).

prostate cancer = details: digoxin use, large prospective cohort study; cited from earlier work
[12] = 24 hour ouabain at high concentrations (500 nM)

C[C@]12CC[C@H](O)C[C@H]1CC[C@@H]1[C@@H]2CC[C@]2(C)[C@@H](c3ccc(=O)oc3)CC[C@]12O [Bufalin, bufalin]
Cells exhibiting DNA fragmentation (TUNEL), a marker for apoptosis (MDA-MB-231 cells [1]; 50 nM bufalin): < 5%
Cells exhibiting DNA fragmentation (TUNEL), a marker for apoptosis (MCF10A cells [2]; 50 nM bufalin): Over 90%
Cells exhibiting DNA fragmentation (TUNEL), a marker for apoptosis (MCF10CA1 cells [3]; 50 nM bufalin): < 5%
Cells exhibiting DNA fragmentation (TUNEL), a marker for apoptosis (MCF7 cells [4]; 50 nM bufalin): < 5%
IC50 (MCF10A cells [5]): 0.465 ± 0.0259 µM
IC50 (184A1 cells): 0.319 ± 0.0061 µM
IC50 (MCF10CA1 cells [6]): 0.635 ± 0.172 µM
IC50 (184D cells): 0.329 ± 0.0112 µM
IC50 (MDA-MB-231 cells [7]): 0.9364 ± 0.0049 µM

C[C@H]1O[C@@H](O[C@H]2[C@@H](O)C[C@H](O[C@H]3[C@@H](O)C[C@H](O[C@H]4CC[C@@]5(C)[C@H](CC[C@@H]6[C@@H]5CC[C@]5(C)[C@@H](C7=CC(=O)OC7)CC[C@]65O)C4)O[C@@H]3C)O[C@@H]2C)C[C@H](O)[C@@H]1O [Digitoxin, digitoxin]
IC50 (MCF10A cells [5]): 1.57 ± 0.191 µM
IC50 (184A1 cells): 1.44 ± 0.0293 µM
IC50 (MCF10CA1 cells [6]): 3.68 ± 0.0895 µM
IC50 (184D cells): 1.27 ± 0.0654 µM
IC50 (Na,K-ATPase; total membranes of 184A1 cells): 1.83 ± 0.0887 µM
IC50 (Na,K-ATPase; total membranes of 184D cells): 2.07 ± 0.307 µM
IC50 (Na,K-ATPase; total membranes of MCF7 cells): 1.16 ± 0.0427 µM
IC50 (Na,K-ATPase; total membranes of MCF10A cells): 1.35 ± 0.0852 µM
IC50 (Na,K-ATPase; total membranes of MCF10CA1 cells): 1.48 ± 0.0738 µM
IC50 (Na,K-ATPase; total membranes of MDAMB231 cells): 1.18 ± 0.155 µM
IC50 (MDA-MB-231 cells [7]): 3.68 ± 0.15 µM

C[C@@H]1O[C@@H](O[C@H]2C[C@@H](O)[C@]3(CO)[C@H]4[C@H](O)C[C@]5(C)[C@@H](C6=CC(=O)OC6)CC[C@]5(O)[C@@H]4CC[C@]3(O)C2)[C@H](O)[C@H](O)[C@H]1O [Ouabain, ouabain]
Proliferation (BrdU incorporation) (MDA-MB-231 cells [8]; [12]): slight decrease in proliferation
Proliferation (BrdU incorporation) (MDA-MB-231 cells [8]; short-term (2 hours) ouabain): not affected
Proliferation (BrdU incorporation) (MCF10CA1 cells [9]; [12]): slight decrease in proliferation
Proliferation (BrdU incorporation) (MCF10CA1 cells [9]; short-term (2 hours) ouabain): not affected
p-ERK levels in lysates (western blot) (p-ERK1/2; A2780CP (cisplatin resistant) cells): increased levels of p-ERK
p-ERK levels in lysates (western blot) (p-ERK1/2; A2780 cells): increased levels of p-ERK
p-ERK1/2 levels in lysates (western blot) (p-ERK1/2; MCF10A, 24 hours (any treatment condition)): did not contain detectable levels of activated p-ERK1/2
p-ERK1/2 levels in lysates (western blot) (p-ERK1/2; MCF10CA1, 24 hours): elevated p-ERK1/2 levels
p-ERK1/2 levels in lysates (western blot) (p-ERK1/2; MDA-MB-231, 24 hours): elevated p-ERK1/2 levels
Cells exhibiting DNA fragmentation (TUNEL), a marker for apoptosis (MDA-MB-231 cells [1]; 500 nM ouabain): < 5%
Cells exhibiting DNA fragmentation (TUNEL), a marker for apoptosis (MCF10A cells [2]; 500 nM ouabain): Over 90%
Cells exhibiting DNA fragmentation (TUNEL), a marker for apoptosis (MCF10CA1 cells [3]; 500 nM ouabain): < 5%
Cells exhibiting DNA fragmentation (TUNEL), a marker for apoptosis (MCF7 cells [4]; 500 nM ouabain): < 5%
Cell viability over treatment duration (MCF10A cells [5]; 500 nM ouabain, after 2 days (0 to 48 hours)): nearly all of the MCF10A cells have died
IC50 (MCF10A cells [5]): 2.17 ± 0.192 µM
Cell viability at varied serum concentration (MCF10A cells [5]; reduced serum (0-10% serum), 500 nM ouabain for 24 hours): increased ouabain sensitivity
IC50 (184A1 cells): 1.49 ± 0.0453 µM
IC50 (MCF10CA1 cells [6]): 2.67 ± 0.574 µM
IC50 (184D cells): 1.35 ± 0.155 µM
Proliferation (BrdU incorporation) (MCF10A cells [10]): decrease in proliferation
ATPase inhibition at varied serum level (Na,K-ATPase; MCF10A isolated membranes, 0-10% serum, 500 nM ouabain, p > 0.05): No significant difference in ATPase inhibition
Proliferation (BrdU incorporation) (MCF7 cells [11]): no change to proliferation
Cell viability at varied serum concentration (MDA-MB-231 cells [7]; MDA-MB-231, 0-10% serum, 500 nM ouabain for 24 hours): not affected

C[C@H]1O[C@@H](O[C@H]2[C@@H](O)C[C@H](O[C@H]3[C@@H](O)C[C@H](O[C@H]4CC[C@@]5(C)[C@H](CC[C@@H]6[C@@H]5C[C@@H](O)[C@]5(C)[C@@H](C7=CC(=O)OC7)CC[C@]65O)C4)O[C@@H]3C)O[C@@H]2C)C[C@H](O)[C@@H]1O [digoxin]
Prevention of prostate cancer (prostate cancer): ≤ 25%
